The values that follow come from article PMC4278708, “A Convenient Method for the Synthesis of (Prop-2-Ynyloxy)Benzene Derivatives via Reaction with Propargyl Bromide, Their Optimization, Scope and Biological Evaluation” (PLoS ONE, 2014).

The target of one data set is urease enzyme (Canavalia ensiformis, UniProt P07374). Nature of the data set: biochemical. Format: biochemical. The settings on record: for inhibition at 50 µg/mL: read-out: Percentage inhibition at 50 ug/mL; for inhibition at 100 µg/mL: read-out: Percentage inhibition at 100 ug/mL. As for the experimental part: Antiurease activity of the synthesized compounds was determined by using the modified phenol-hypochlorite method. Varying concentrations were used to prepare the urease inhibition curve of Thiourea (a known inhibitor of Urease) in the reaction mixture. Phosphate buffer solution of pH 7 containing 1 unit of enzyme was added about 200 µl in the test tube which was followed by the addition of 230 µl of phosphate buffer and 20 µl of thiourea from a scrupulous stock solution for the particular concentration of thiourea in the reaction mixture respectively. Test sample solutions were added instead of thiourea solution in case of test samples. The reaction mixture were mixed and incubated at 25°C for 5 min. 400 µl of urea stock (20 mM) was added in each test tube. In order to allow the action of urease on urea, all the test tubes were incubated at 40°C.
urease enzyme, sequence (P07374 whole entry, looked up): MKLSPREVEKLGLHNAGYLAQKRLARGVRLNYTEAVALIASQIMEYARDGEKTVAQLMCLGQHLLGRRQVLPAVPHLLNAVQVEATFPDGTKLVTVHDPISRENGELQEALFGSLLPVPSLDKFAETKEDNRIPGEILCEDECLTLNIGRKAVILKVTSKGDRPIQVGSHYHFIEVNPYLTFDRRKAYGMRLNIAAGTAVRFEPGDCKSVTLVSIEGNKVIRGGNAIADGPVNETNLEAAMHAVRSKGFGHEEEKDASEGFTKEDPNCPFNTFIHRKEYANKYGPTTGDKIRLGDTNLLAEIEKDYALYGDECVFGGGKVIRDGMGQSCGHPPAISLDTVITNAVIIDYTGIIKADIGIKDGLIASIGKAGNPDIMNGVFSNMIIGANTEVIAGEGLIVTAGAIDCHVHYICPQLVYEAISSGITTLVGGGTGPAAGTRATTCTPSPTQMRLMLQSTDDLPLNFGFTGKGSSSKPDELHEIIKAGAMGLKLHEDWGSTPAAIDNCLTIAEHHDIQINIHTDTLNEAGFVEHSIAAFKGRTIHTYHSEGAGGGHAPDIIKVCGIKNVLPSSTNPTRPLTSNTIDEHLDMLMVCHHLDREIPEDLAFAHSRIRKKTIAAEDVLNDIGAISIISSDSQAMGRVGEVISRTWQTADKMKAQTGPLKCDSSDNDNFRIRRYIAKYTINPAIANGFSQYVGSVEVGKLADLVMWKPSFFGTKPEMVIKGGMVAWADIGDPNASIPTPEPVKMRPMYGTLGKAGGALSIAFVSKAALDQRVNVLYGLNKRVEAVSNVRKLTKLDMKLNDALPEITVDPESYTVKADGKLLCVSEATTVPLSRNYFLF
Phenol hypochlorite reagent (1150 µl) was added after 10 min incubation at 40°C. Test tubes were again incubated at 56°C for 25 min. A blue coloured complex was formed in the reaction mixture. The samples were allowed to cool for 5 min and then their absorbance values were measured at 625 nm and the %age inhibition was calculated. Experiment was repeated three times to get the SD values.

In a further data set the test system is Bacillus subtillus. In words: Antibacterial activity, disc diffusion method. The data set is classed as cell-based. The settings on record: for inhibition at 100 µg/mL: 100 ug/ml, read-out: Bacillus subtillus 100 ug/ml (percentage inhibition); for IC50: read-out: Bacillus subtillus IC50 ug/ml. From the text: (§1) Disc diffusion method was adopted to test the antibacterial activity of synthesized compounds 2a-10 against […] different bacterial strains. Ampiciline was used as positive control to check antibacterial activity of synthesized compounds. The bacterial strains employed were: Escherichia coli, Bacillus subtillus, Shigella flexneri, Staphylococcus aureus, Pseudomonas aeroginosa and Salmonella typhi.
(§2) Disc diffusion method was used for the determination of antibacterial activity. synthetic organic compounds were examined to evaluate their antibacterial potential against four different strains of bacteria i.e. Staphlococcus aureus (Gram + ive), Pseudomonas- aeroginosa (Gram−ive) and Escherichia coli (Gram−ive), Bacillus subtilis (Gram + ive), Salmonella typhi (Gram−ive) and Shigella flexneri (−ive). The synthetic organic compounds were dissolved in an appropriate solvent to get the solution of known concentration (5 µg/µl or 10 µg/µl). In order to prepare discs of different potencies known volume of extract/synthetic organic compound solution was applied on the discs, air dried and used. After preparation of the sterilized nutrient agar and nutrient broth medium, the sterilized nutrient agar medium was poured under aseptic conditions into sterile glass petri dishes/plates. A known volume of bacterial growth culture can also be poured on the surface of agar medium solidified in petri dishes. After inoculation petri plates were kept at room temperature for 15–30 minutes so that the poured medium is adsorbed. All the discs, including test sample, +ive and –ve controls were placed onto the inoculated nutrient agar medium solidified in petri dishes with the help of sterile forceps and incubated the petri plates at 37°C±2°C for 16–24 hours. Zone of inhibition was measured in mm using ordinary scale. Experiment was repeated three times to get the SD values.

Another data set has as its system Staphylococcus aureus. Nature of the data set: Antibacterial activity, disc diffusion method. To be noted: for inhibition at 40 µg/mL / inhibition at 100 µg/mL / IC50: Staphylococcus aureus; for inhibition at 40 µg/mL: read-out: Staphylococcus aureus 40 ug/ml (percentage inhibition); for inhibition at 100 µg/mL: read-out: Staphylococcus aureus 100 ug/ml (percentage inhibition); for IC50: read-out: Staphylococcus aureus IC50 ug/ml. Format: cell-based.
Excerpt: as §1, §2
On the technique in general: Agar diffusion results depend on both activity and mobility in agar.

Data set [1] is described as follows: Nitric oxide (NO) scavenging activity (sodium nitropruside / Griess reagent). To be noted: for Percentage scavenging activity at 50 ug/ml / Percentage scavenging activity at 100 ug/ml: NO; for IC50: NO scavenging. As for the experimental part:
Solutions of known concentration were prepared by dissolving the synthesized compounds in appropriate solvents. A mixture of sample solution (20 µl), 10 mM sodium nitropruside solution (200 µl) and phosphate buffer of 7.4 pH (1780 µl) was taken in a dry test tube and the mixture was incubated at 37°C for 2 hours. 200 µl Griess reagent (0.3% Sulphanilic acid in glacial acetic acid, 0.1% Naphthyl ethylene diamine HCL (NED): Mixed equal volume of both solutions just before use) was added after the incubation period is over. After 20 min keeping the solution at room temperature, its absorbance at 528 nm was measured. Each sample was analyzed in triplicate. Positive control of any known antioxidant and control of all samples were run in parallel. Use of negative control was to calibrate the instrument. Sample blanks were also prepared in case if the samples were coloured. Correction in the absorbance values was made by subtracting the sample blank reading from the sample reading.
A general note: The Griess reaction detects nitrite, a stable product of nitric oxide.

≈ marks a conversion by molar mass, not a printed value.

Turning to `C#CCOc1ccc([N+](=O)[O-])cc1` [Compound 2f, 1-nitro-4-(prop-2-ynyloxy)benzene], the melting point (as a rule, the temperature, or range, at which the solid turns liquid) worked out at 129 °C. For the same molecule, on urease enzyme, the IC50 was 360 µM, the inhibition at 50 µg/mL was 44 ± 0.43% and the inhibition at 100 µg/mL was determined as 65.8 ± 0.18%. Moreover, in the data set on Bacillus subtillus, the “activity against Bacillus subtillus (in words)” value was “batter activity”. Besides, in the data set with Bacillus subtillus (Bacillus), the inhibition at 100 µg/mL was determined as 57.9 ± 0.25% and the IC50 came to 87.5 µg/mL (≈ 494 µM). In addition, in the data set on Staphylococcus aureus, the “activity against Staphylococcus aureus (in words)” value was “inactive”, the inhibition at 40 µg/mL was 18.7 ± 0.3% and the inhibition at 100 µg/mL is 39 ± 0.4%. Further, in data set [1], the “nitric oxide scavenging activity (in words)” value is “did not show any significant results”, the “Percentage scavenging activity at 50 ug/ml” value is 32±0.10% and the “Percentage scavenging activity at 100 ug/ml” value is reported as 47.01±0.27%.

With `C#CCOc1ccc(Br)cc1Br` [Compound 2c, 2,4-dibromo-1-(prop-2-ynyloxy)benzene], the melting point amounted to 157.95 °C. In addition, on urease enzyme, the IC50 is 242 µM, the inhibition at 50 µg/mL stood at 36 ± 0.5% and the inhibition at 100 µg/mL was found to be 86.45 ± 0.07%. For the same molecule, the “activity against Bacillus subtillus (in words)” value in the data set with Bacillus subtillus is “batter activity”. For the same molecule, in the data set with Bacillus subtillus (Bacillus), the inhibition at 100 µg/mL turned out to be 55.01 ± 0.25% and the IC50 came out at 83.8 µg/mL (≈ 289 µM). Also, in the data set on Staphylococcus aureus, the IC50 stood at 87.7 µg/mL (≈ 302 µM), the inhibition at 40 µg/mL is 31.47 ± 0.2% and the inhibition at 100 µg/mL was determined as 56 ± 0.1%. In data set [1], the IC50 was found to be 63.8 µg/mL (≈ 220 µM), the “Percentage scavenging activity at 50 ug/ml” value is 39.67±0.09% and the “Percentage scavenging activity at 100 ug/ml” value stood at 77.03±0.11%.

Molecule `C#CCOc1ccc(Br)cc1Cl` [Compound 2a, 4-bromo-2-chloro-1-(prop-2-ynyloxy)benzene] had a melting point of 29 °C. On urease enzyme, the IC50 was 245 µM, the inhibition at 50 µg/mL worked out at 42.5 ± 0.7% and the inhibition at 100 µg/mL was 82 ± 0.09%. The “activity against Bacillus subtillus (in words)” value in the data set with Bacillus subtillus was “inactive”. Further, in the data set with Bacillus subtillus (Bacillus, 50 ug/ml, read-out: Bacillus subtillus 50 ug/ml (percentage inhibition)), the inhibition at 50 µg/mL was 42.4 ± 0.35%. Further, in the data set on Staphylococcus aureus, the IC50 worked out at 97.7 µg/mL (≈ 398 µM), the inhibition at 40 µg/mL was determined as 29.13 ± 0.12% and the inhibition at 100 µg/mL amounted to 51 ± 0.5%. Further, in data set [1], the IC50 stood at 67.72 µg/mL (≈ 276 µM), the “Percentage scavenging activity at 50 ug/ml” value was 35.67±0.09% and the “Percentage scavenging activity at 100 ug/ml” value turned out to be 76.09±0.12%.

Turning to `C#CCOc1ccc(S(=O)(=O)c2ccc(OCC#C)cc2)cc1` [Compound 4b, 4,4′-sulfonylbis((prop-2-ynyloxy)benzene)], the melting point is 136 °C. Also, on urease enzyme, the IC50 is 217 µM, the inhibition at 50 µg/mL was 32 ± 0.28% and the inhibition at 100 µg/mL stood at 74.9 ± 0.13%. For the same molecule, in the data set with Bacillus subtillus (Bacillus), the inhibition at 100 µg/mL was 50.9 ± 0.34% and the IC50 was found to be 97.6 µg/mL (≈ 299 µM). In addition, in the data set with Staphylococcus aureus, the “activity against Staphylococcus aureus (in words)” value is “moderate activity”, the IC50 came out at 94.2 µg/mL (≈ 289 µM), the inhibition at 40 µg/mL stood at 26.9 ± 0.35% and the inhibition at 100 µg/mL was found to be 53 ± 0.7%. For the same molecule, in data set [1], the IC50 worked out at 89.6 µg/mL (≈ 275 µM), the “Percentage scavenging activity at 50 ug/ml” value was 15.33±0.12% and the “Percentage scavenging activity at 100 ug/ml” value came to 59±0.15%.

Molecule `C#CCNc1ccc(Br)c(C)c1` [Compound 8c, 4-bromo-3-methyl-N-(prop-2-ynyl)aniline] gave a melting point of 40.85 °C. In addition, the “urease inhibition activity (in words)” value on urease enzyme (50 and 100 µg/ml tested) was “did not show any satisfactory results”. Moreover, on urease enzyme, the inhibition at 50 µg/mL was 32 ± 0.38% and the inhibition at 100 µg/mL was 45.26 ± 0.295%. Besides, the inhibition at 100 µg/mL in the data set with Bacillus subtillus (Bacillus) worked out at 36 ± 0.39%. Further, in the data set with Staphylococcus aureus, the inhibition at 40 µg/mL amounted to 15.9 ± 0.69% and the inhibition at 100 µg/mL stood at 35 ± 0.2%. For the same molecule, in data set [1], the IC50 was 78 µg/mL (≈ 348 µM), the “Percentage scavenging activity at 50 ug/ml” value is given as 33.66±0.09% and the “Percentage scavenging activity at 100 ug/ml” value is given as 62.8±0.19%.
